These results are taken from PubChem BioAssay AID179 (DTP/NCI, 2004).

In general, EC50 refers to the concentration needed to bring the measured effect to its halfway point. By IC50 is commonly meant the point on the concentration scale where inhibition reaches its midpoint. Lower therefore signals greater potency in that assay.

Activity calls are given as the source filed them.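 How the source made its calls: active means compounds giving half or more protection of infected cells from virus-caused growth loss, again on retest; inactive means the rest.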 Where a SMILES comes first, the peptide text is derived from it. The star is where a group is joined. Boc = CC(C)(C)OC(=O)*; OBn = c1ccc(CO*)cc1

This test relates to CEM cells HIV-1 protection, formazan growth assay. Description: NCI AIDS Antiviral Assay. Particulars: for IC50: measured here: growth of uninfected CEM cells. The procedure, abridged:
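CEM (human) cells, HIV-1 infected vs uninfected, 5-point dosing, formazan growth read-out. Retest threshold 50% protection.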

Consider `CCCCCCCCCCCCCCCCCCNc1ccn(C2OC(CO)C(OP(=O)(O)OCC3CCC(n4ccc(N)nc4=O)O3)C2O)c(=O)n1` (configuration not stated), for which the EC50 is 1.1 µM and the IC50 was determined as 15.8 µM.

For `CCOP(=O)(OCC)/C(C#N)=C/c1cccc(Cl)c1`, the EC50 is more than 224 µM and the IC50 amounted to 174 µM.

`COc1ccc(N[C@H](CS(=O)c2ccc(C)cc2)C(F)(F)F)cc1` (some centres not stated): the EC50 was more than 200 µM and the IC50 is more than 200 µM.

With `COc1ccc(Cc2c(N)[nH]c(=O)n(C)c2=O)cc1`, the EC50 is more than 200 µM and the IC50 is 89.1 µM.

With `CC(=O)Oc1c(OC(C)C)cc(=O)n2ccsc12`, the EC50 is more than 200 µM and the IC50 is 102 µM.

With `O=[N+]([O-])c1nccn1CCCNCCCn1ccnc1[N+](=O)[O-]`, the EC50 was more than 200 µM and the IC50 was more than 200 µM.

Take `COC(=O)[C@H](Cc1ccccc1)NC(=O)OCC1OC(n2cc(C)c(=O)[nH]c2=O)CC1N=[N+]=[N-]` (some centres not stated): the EC50 was more than 200 µM and the concentration for half-maximal inhibition (IC50) was more than 200 µM.

With `CCC1=CCN(c2cc(C)ccn2)OC1c1ccccc1` (configuration not stated), the EC50 was more than 35.5 µM and the IC50 was more than 35.5 µM.

In the case of `[N-]=[N+]=Nc1cc(=O)n2c3c(cccc13)CCC2`, the result was inactive.

`COC(=O)N1CCCCC(CCC#CC[Si](C)(C)C)C1=O` (configuration not stated): the concentration for a half-maximal effect (EC50) was more than 120 µM and the IC50 turned out to be 110 µM.

`C[C@H](CSC(=O)c1ccccc1)C(=O)N1c2ccccc2C[C@H]1C(=O)O`: the EC50 is more than 200 µM and the IC50 amounted to 107 µM.

As to `O=[N+]([O-])c1cccc(S(=O)(=O)SSS(=O)(=O)c2cccc([N+](=O)[O-])c2)c1`, the EC50 was more than 40.7 µM and the IC50 is more than 40.7 µM.

As for `Cc1cc(=O)c2cc3nc(-c4cccnc4)oc3c(Br)c2o1`, the EC50 was 182 µM and the IC50 is more than 200 µM.

With `CN(C)c1ccc(-c2nn(C)c3nc(=O)n(C)c(=O)c-3[n+]2[O-])cc1`, the EC50 is more than 200 µM and the IC50 was found to be 0.562 µM.

Consider `O=C(O)C1=C(C(=O)O)C2c3ccccc3C1c1ccccc12`, for which the EC50 is more than 200 µM and the IC50 is more than 200 µM.

In the case of `c1ccc(-c2ccccn2)nc1`, the EC50 is more than 1580 µM and the IC50 was found to be 27.5 µM.

On to `O=c1cc2ccccc2nn1Cc1ccccc1`, for which the EC50 is more than 21.9 µM and the IC50 is more than 21.9 µM.

Take `N#C/C(=C\c1c(Cl)cccc1Cl)c1nc(-c2ccc(Cl)cc2)cs1`: the EC50 was more than 200 µM and the IC50 turned out to be 72.4 µM.

On to `Nc1ccn(CCO)c(=O)n1`, for which the EC50 was more than 1620 µM and the IC50 is more than 1620 µM.

Turning to `Clc1ccc(C2=NOC3C4CCC(C4)C23)cc1` (configuration not stated), the outcome was inactive.

With `O=C(O)c1cc(Nc2nc(Cl)nc(Cl)n2)ccc1-c1c2ccc(=O)cc-2oc2cc(O)ccc12`, the EC50 is 38 µM and the IC50 was 692 µM.

For `CCOP(=S)(N/N=C1/C2(C)CCC(C2)C1(C)C)OCC` (configuration not stated), the EC50 is more than 200 µM and the IC50 stood at 20 µM.

Consider `CCCN(CCC)C(=S)N/N=C/c1cccc(C)n1`, for which the EC50 is more than 200 µM and the IC50 was 0.0631 µM.

Turning to `O=C(C#Cc1ccccc1)Nc1ccccc1CC(c1c[nH]c2ccccc12)c1c[nH]c2ccccc12`, the EC50 was more than 26.3 µM and the IC50 is 5.25 µM.

Consider `OC1(c2ccccc2)Oc2ccccc2C(c2ccccc2)C1c1ccccc1` (configuration not stated), for which the EC50 was more than 200 µM and the IC50 worked out at 9.55 µM.

As to `Cc1ccc(/C=N/Nc2ccc3ccccc3n2)s1`, the EC50 is more than 200 µM and the IC50 was 21.4 µM.

For the compound `CC(=O)Oc1cc(OC(C)=O)c2c(c1C)CC[C@@H]1[C@@H]2CC[C@]2(C)[C@@H](OC(C)=O)CC[C@@H]12`, the EC50 is more than 200 µM and the IC50 was 18.2 µM.

In the case of `N#Cc1c(N)oc(-c2ccccc2)c1-c1ccccc1`, the result was inactive.

As for `O=C1NC(=O)C2(CCCCC2)N1`, the EC50 was more than 200 µM and the IC50 was more than 200 µM.

For `Cc1cn(C(CO)OC(CO)CN(O)C2C3CC4CC(C3)CC2C4)c(=O)[nH]c1=O` (configuration not stated), the EC50 was more than 200 µM and the IC50 was more than 200 µM.

Turning to `OC(COc1ccc2ccccc2c1)COc1ccc2ccccc2c1`, the EC50 was more than 200 µM and the IC50 came to 138 µM.

As for `Oc1ccc(CCc2nc3ccccc3[nH]2)cc1`, the EC50 was more than 200 µM and the IC50 turned out to be 42.7 µM.

As to `Cc1ccc(N=Nc2cc(C)c(N)c(N=Nc3ccc(N=Nc4cc(C(=O)O)c(O)c(S(=O)(=O)O)c4)c(C)c3)c2N)cc1`, the EC50 was 14.1 µM and the IC50 is more than 100 µM.

As to `Cc1ccc([N+](=O)[O-])cc1NC1=NCCO1`, the EC50 was more than 200 µM and the IC50 came out at 186 µM.

In the case of `CC(=O)OCCC1c2ccccc2-n2nc(-c3ccccc3)c(O)c21` (configuration not stated), the EC50 is more than 200 µM and the IC50 was determined as 11.2 µM.

For `Cc1nn(C(=O)Cc2ccccc2)c2c1C(c1ccccc1)SC(N)=N2` (configuration not stated), the EC50 is 148 µM and the IC50 was 195 µM.

In the case of `C/C(=N\N)C(CN1CCOCC1)C(c1ccccc1)c1c(O)c2ccccc2oc1=O` (configuration not stated), the EC50 is more than 89.1 µM and the IC50 worked out at 85.1 µM.

As for `CC1=NN(C(=O)c2ccccc2O)C(=O)C1N=Nc1ccccc1C(=O)O` (configuration not stated), the result was inactive.

For the compound `COc1cc(/C=C2\Sc3scc(-c4cccc([N+](=O)[O-])c4)[n+]3C2=O)cc(OC)c1OC`, the EC50 is more than 200 µM and the half-inhibitory concentration (IC50) came out at 9.77 µM.

On to `Cc1ccc2c(n1)C(N1CCCCC1)=CC(=O)C2=O`, for which the result was inactive.

On to `c1cc(C2N3CCCN2CC3)ccn1` (configuration not stated), for which the result was inactive.

Regarding `CC(C)OP(=O)(OC(C)C)C([CH2][Sn]([CH3])([CH3])[Br])P(=O)(OC(C)C)OC(C)C`, the EC50 is more than 200 µM and the IC50 came to 8.71 µM.

As to `COC1=C(C)C(=O)C2C(C1=O)C(c1ccc(OC)c(OC)c1)[C@H]2C` (some centres not stated), the EC50 was more than 151 µM and the IC50 turned out to be 135 µM.

As to `OC1(C23CC4CC(CC(C4)C2)C3)CSCC1(O)C12CC3CC(CC(C3)C1)C2` (configuration not stated), the EC50 was more than 7.08 µM and the IC50 was more than 7.08 µM.

Take `O=C1CN=C(c2ccccc2)c2cc(Cl)ccc2N1`: the EC50 was more than 26.3 µM and the IC50 was more than 26.3 µM.

In the case of `CC1=C(C(=O)Nc2ccccc2C)C(c2ccc(C3C(C(=O)Nc4ccccc4C)=CNC=C3C(=O)Nc3ccccc3C)cc2)C(C(=O)Nc2ccccc2C)=C(C)N1`, the outcome was inactive.

As for `ON(Cc1ccccc1)C(=S)c1ccccc1`, the EC50 is more than 5.37 µM and the IC50 came out at 0.372 µM.

On to `COc1ccccc1NC(=O)C(CC(C(=O)Nc1ccccc1OC)/C(C)=N/NC(=O)c1ccccc1O)/C(C)=N/NC(=O)c1ccccc1O` (configuration not stated), for which the EC50 is more than 51.3 µM and the IC50 was more than 51.3 µM.

In the case of `Cc1ccc(C(=O)NC2CCCCC2)cc1N=NN(C)C`, the EC50 is more than 46.8 µM and the IC50 was 45.7 µM.

For `Oc1ccc(O)c2c1N=NC21c2ccccc2Oc2ccccc21`, the EC50 was more than 112 µM and the IC50 was determined as 33.1 µM.

As to `CC(=O)O[C@H]1CCC2[C@@H]3CCC4=C(O)c5nocc5C[C@]4(C)C3CC[C@@]21C` (some centres not stated), the EC50 is more than 70.8 µM.

With `Cc1cc(S(=O)(=O)Nc2nc3cc(-c4ccc(Cl)cc4)sc3c(=O)n2N)c(S)cc1Cl`, the EC50 was more than 200 µM and the IC50 came out at 110 µM.

As for `Cc1ccc(S(=O)(=O)NC(=O)C2S(=O)(=O)OCCOS2(=O)=O)cc1`, the EC50 was more than 3890 µM and the IC50 came out at 77.6 µM.

Regarding `O=C(O)CNS(=O)(=O)c1ccc(NC(=O)c2ccc(Cl)cc2)cc1`, the outcome was inactive.

Consider `O=C1C(Cl)N(c2ccccc2[N+](=O)[O-])C1c1c[nH]c2ccccc12` (configuration not stated), for which the EC50 was more than 275 µM and the IC50 was 132 µM.

On to `COc1ccc2c(c1OC)C(=O)c1cc(C(C)O)oc1C2=O` (configuration not stated), for which the outcome was inactive.

Take `CCCN(CCCC(NC(C)=O)C(=O)NCc1ccccc1)C(=O)N(CCCl)N=O` (configuration not stated): the outcome was inactive.

As for `COC1/C=C/OC2(C)Oc3c(C)c(O)c4c(O)c(c(C=NOC(c5ccccc5)c5ccccc5)c(O)c4c3C2=O)NC(=O)/C(C)=C/C=C/C(C)C(O)C(C)C(O)C(C)C(OC(C)=O)C1C` (configuration not stated), the EC50 is more than 200 µM and the IC50 is 4.79 µM.

For `NNC(=O)c1n[nH]nc1SSc1n[nH]nc1C(=O)NN`, the outcome was inactive.

Regarding `CC(C)C(NC(=O)CNC(=O)C1CCCN1C(=O)C(NC(=O)OC(C)(C)C)C(C)C)C(=O)NCC(=O)OCc1ccccc1` (configuration not stated) (Boc-VPGVG-OBn; configuration not given here), the EC50 was more than 200 µM and the IC50 came to 117 µM.

Turning to `O=C(O)Cc1ccc2c(c1)sc1nc(-c3ccc(Br)cc3)cn12`, the EC50 is more than 200 µM and the IC50 came out at 141 µM.

In the case of `C[Si](C)(C)C1=C2C(=O)c3ccccc3C(=O)C2=C([Si](C)(C)C)[C@@H]2CCCC[C@H]12`, the EC50 was more than 50.1 µM and the IC50 is more than 50.1 µM.

With `CCOC(=O)CN1CCC2CC1c1c([nH]c3ccccc13)C2c1cc2c(cc1OC)N(C)C1C(O)(C(=O)OC)C(OC(C)=O)C3(CC)C=CCN4CCC21C43` (configuration not stated), the EC50 is more than 9.55 µM and the IC50 was more than 9.55 µM.

As to `OCCCCCNc1ccnc2cc(Cl)ccc12`, the EC50 was more than 832 µM and the IC50 was determined as 47.9 µM.

For `O=C1c2c([N+](=O)[O-])cc(S(=O)(=O)O)c(O)c2C(=O)c2c([N+](=O)[O-])cc(S(=O)(=O)O)c(O)c21`, the result was inactive.

`CCOC(=O)C(C)(c1c(C)n(C)c2ccccc12)c1c(C)n(C)c2ccccc12`: the EC50 is more than 200 µM and the IC50 is more than 100 µM.

On to `O=C1CSC(/C(=C\c2ccc(Cl)cc2)c2nc3ccccc3[nH]2)=N1`, for which the EC50 is more than 10 µM and the IC50 was more than 10 µM.

Regarding `CN(C)CCCNc1c(C#N)[n+]([O-])c2cc(Cl)ccc2[n+]1[O-]`, the EC50 was more than 2 µM and the IC50 was 1 µM.

For `CCOC(=O)C1=C(C)/C(=C/c2[n-]c(C)c(C(=O)OCC)c2C)N=C1C.CCOC(=O)C1=C(C)/C(=C/c2[n-]c(C)c(C(=O)OCC)c2C)N=C1C.[Cu+2]`, the EC50 is more than 200 µM and the IC50 was more than 200 µM.

As for `COC(=O)C(=O)C(C#N)c1cccc(O)c1C(=O)OC` (configuration not stated), the EC50 is more than 36.3 µM and the IC50 is more than 36.3 µM.
